Experimental data: patent publication US5284826A, “0-hydroxyethyl and acyloxyethyl derivatives of [ser]^8 cyclosporins” (Sandoz Ltd., priority 1989, dated 1994)

Assay: Stability of solid-state forms
Format: physicochemical
Conditions: B form (hydrate from acetone/water) compared with amorphous form and A and C modifications
Text: Cyclosporins according to the invention may exist in the solid state in amorphous form or in one or more crystalline forms. For example, the compound of Example 2 below exists in amorphous form or in at least three crystalline forms, distinguishable by X-ray diffraction and designated the A, B and C modifications.

stability of crystal form: most stable
Structure (SMILES): C/C=C/C[C@@H](C)[C@@H](O)[C@H]1C(=O)N[C@@H](CC)C(=O)N(C)CC(=O)N(C)[C@@H](CC(C)C)C(=O)N[C@@H](C(C)C)C(=O)N(C)[C@@H](CC(C)C)C(=O)N[C@@H](C)C(=O)N[C@H](COCCO)C(=O)N(C)[C@@H](CC(C)C)C(=O)N(C)[C@@H](CC(C)C)C(=O)N(C)[C@@H](C(C)C)C(=O)N1C [Example 2, [O-(2-hydroxyethyl)(D)Ser]^8 -Ciclosporin]
